Data taken from patent US20260152487A1 (Sitryx Therapeutics Limited, priority 2021, published 2026).

Assays:
[1] = biological target: T1, recombinant human PKM2 (Homo sapiens, UniProt P14618); experiment: Human PKM2 activation assay (Kinase-Glo Plus luminescent detection of generated ATP); format: biochemical; conditions: for Emax: percentage activation normalised to DMSO vehicle (LOW) and 5 μM TEPP-46 (HIGH), read-out: hPKM2 Emax; for EC50: recombinant human PKM2 activation, 4-parameter logistic fit, read-out: hPKM2 EC50
T1 construct: His (N); purchased R&D Systems
T1 sequence (P14618 2-531 limits assumed): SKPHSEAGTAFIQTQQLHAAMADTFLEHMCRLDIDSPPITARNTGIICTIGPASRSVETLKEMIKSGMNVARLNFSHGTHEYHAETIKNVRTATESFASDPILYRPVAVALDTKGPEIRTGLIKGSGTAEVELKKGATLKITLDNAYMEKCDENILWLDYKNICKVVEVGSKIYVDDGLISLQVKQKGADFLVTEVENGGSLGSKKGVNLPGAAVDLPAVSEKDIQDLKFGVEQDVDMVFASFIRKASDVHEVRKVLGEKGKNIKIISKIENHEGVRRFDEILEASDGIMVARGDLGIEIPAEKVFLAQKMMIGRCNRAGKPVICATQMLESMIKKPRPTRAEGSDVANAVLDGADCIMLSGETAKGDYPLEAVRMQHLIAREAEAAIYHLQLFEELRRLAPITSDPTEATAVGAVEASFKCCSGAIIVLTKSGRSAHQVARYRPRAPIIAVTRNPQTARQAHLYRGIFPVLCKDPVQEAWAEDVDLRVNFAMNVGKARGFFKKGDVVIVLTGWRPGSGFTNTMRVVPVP
Method in brief: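 N-His-tagged recombinant hPKM2 ([…]) with PEP and ADP was incubated with compound for 60 min at 26 °C, shaking, in 50 mM imidazole, 50 mM KCl, 7 mM MgCl2, 0.01% Tween20, 0.05% BSA, pH 7.2. ATP produced was read by Kinase-Glo Plus luminescence after 15 min.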

[2] = tested on: A549 cells; experiment: A549 cell proliferation in low-serine medium (CellTiter-Glo 2.0 viable cell number); format: cell-based; conditions: Homo sapiens, 72 h, 3 days, Assay Medium with 20 μM L-serine
Description: The effect of compounds of Formula (Ia) on A549 cell proliferation in low-serine medium was assessed using a luminescence assay of viable cell number (CellTiter-Glo® 2.0, Promega) duplexed with a fluorescent cytotoxicity assessment (CelITox™ Green, Promega). Cell culture reagents were from ThermoFisher unless specified otherwise. Assay reagents were from Sigma-Aldrich unless specified otherwise. Test Compounds were prepared as 10 mM DMSO stocks and dilution series prepared in DMSO for direct dilution into culture medium.
Cells were passaged every 3-4 days at 80-90% confluence. The cell monolayer was washed twice with room-temperature Ca^2+/Mg-free PBS and 4 ml room-temperature trypsin-EDTA added to the flask. After 5 minutes' incubation (37° C., 5% CO2) to detach cells, trypsin was quenched with 13 ml warmed complete growth medium and the cells harvested and diluted to 2.4×10^4 cells/ml for dispensing into 384-well clear-bottom black-walled plates (600 cells/well).
Following overnight incubation, growth medium was aspirated from each well and the cells washed twice with Assay Medium comprising Basal Medium Eagle supplemented with 3% heat-inactivated dialysed FBS plus 2 mM L-glutamine plus 20 μM L-serine (Sigma-Aldrich). After aspiration of the final wash medium, Assay Medium containing Test Compound was added to each well. DMSO vehicle controls were included on each plate.
Cells were incubated for 3 days in a humidified incubator (37° C., 5% CO2) at which point CelITox™ Green and CellTiter-Glo® reagents were prepared according to the manufacturer's instructions. Triton-X was added to HIGH wells for cytotoxicity determination and the plate incubated for 30 minutes (20° C., ambient humidity and pCO2). CelITox™ Green reagent was added to each well and the plate covered, placed on an orbital shaker @450 rpm for 2 minutes, and incubated in the dark for 15 minutes (20° C., ambient humidity and pCO2). Endpoint fluorescence was measured using a plate reader (PHERAstar® FSX, BMG Labtech).
Following cytotoxicity determination, CellTiter-Glo® reagent was added to each well and the plate placed on an orbital shaker @450 rpm for 2 minutes to lyse cells. Plates were incubated in the dark for 15-30 minutes (20° C., ambient humidity and pCO2) prior to endpoint luminescence measurement (PHERAstar® FSX, BMG Labtech).
Proliferation was calculated by normalizing luminescence signals to LOW controls obtained from a parallel plate processed at the time of Test Compound challenge and HIGH (DMSO vehicle) wells from the compound plate. IC50 values were determined from a 4-parameter logistic fit of compound concentration-response curves.

Row | SMILES | Emax [1] | EC50 [1] | IC50 [2]
1 | CC1Cc2cc(Cn3ncc4cc(S(=O)(=O)c5ccccc5)ccc4c3=O)ccc2O1 (stereo not drawn) [Example 64, 2-((2-methyl-2,3-dihydrobenzofuran-5-yl)methyl)-6-(phenylsulfonyl)phthalazin-1(2H)-one] | 96.4% | 45 nM | 2.1 nM
2 | COc1ccc(S(=O)(=O)c2ccc3c(=O)n(Cc4c(F)cc(OC)cc4F)ncc3c2)cc1 [Example 53, 2-(2,6-difluoro-4-methoxybenzyl)-6-((4-methoxyphenyl)sulfonyl)phthalazin-1(2H)-one] | 89.2% | 59.1 nM | 5.7 nM
3 | NC(=O)Cc1ccccc1Cn1ncc2cc(S(=O)(=O)c3ccccc3)ccc2c1=O [Example 61, 2-(2-((1-oxo-6-(phenylsulfonyl)phthalazin-2(1H)-yl)methyl)phenyl)acetamide] | 67.2% | 564 nM | 15.8 nM
4 | COc1ccc(S(=O)(=O)c2ccc3c(=O)n(Cc4ccn(C)n4)ncc3c2)cc1 [Example 72, 6-((4-methoxyphenyl)sulfonyl)-2-((1-methyl-1H-pyrazol-3-yl)methyl)phthalazin-1(2H)-one] | 103% | 35.9 nM | 3.2 nM
5 | NC(=O)c1ncccc1Cn1ncc2cc(S(=O)(=O)c3ccccc3)ccc2c1=O [Example 9, 3-((1-oxo-6-(phenylsulfonyl)phthalazin-2(1H)-yl)methyl)picolinamide] | 105% | 362 nM | 17.5 nM
6 | COc1ccc(S(=O)(=O)c2ccc3c(=O)n(Cc4n[nH]cc4C)ncc3c2)cc1 [Example 104, 6-((4-methoxyphenyl)sulfonyl)-2-((4-methyl-1H-pyrazol-3-yl)methyl)phthalazin-1(2H)-one] | 104% | 56.5 nM | 1.2 nM
7 | O=c1c2ccc(S(=O)(=O)c3ccccc3)cc2cnn1Cc1ccc2cn[nH]c2c1 [Example 58, 2-((1H-indazol-6-yl)methyl)-6-(phenylsulfonyl)phthalazin-1(2H)-one] | 88.6% | 477 nM | 41.8 nM
8 | NC(=O)c1c[nH]nc1Cn1ncc2cc(S(=O)(=O)c3ccccc3)ccc2c1=O [Example 15, 3-((1-oxo-6-(phenylsulfonyl)phthalazin-2(1H)-yl)methyl)-1H-pyrazole-4-carboxamide] | 124% | 243 nM | 15.8 nM
9 | O=c1c2ccc(S(=O)(=O)c3ccccc3)cc2cnn1C(F)(F)c1cccnc1 [Example 78, 2-(difluoro(pyridin-3-yl)methyl)-6-(phenylsulfonyl)phthalazin-1(2H)-one] | 99% | 802 nM | 89.1 nM
10 | O=c1c2ccc(S(=O)(=O)c3ccccc3)cc2cnn1Cc1ccccc1CO [Example 20, 2-(2-(hydroxymethyl)benzyl)-6-(phenylsulfonyl)phthalazin-1(2H)-one] | 90.7% | 249 nM | 6.4 nM
11 | COc1ccc(Cn2ncc3cc(S(=O)(=O)c4ccccc4)ccc3c2=O)nc1 [Example 59, 2-((5-methoxypyridin-2-yl)methyl)-6-(phenylsulfonyl)phthalazin-1(2H)-one] | 107% | 68.9 nM | 3.2 nM
12 | COCC(c1ccc(OC)nc1)n1ncc2cc(S(=O)(=O)c3ccccc3)ccc2c1=O (stereo not drawn) [Example 8, 2-(2-methoxy-1-(6-methoxypyridin-3-yl)ethyl)-6-(phenylsulfonyl)phthalazin-1(2H)-one] | 80.8% | 931 nM | 218 nM
13 | Cc1c[nH]nc1Cn1ncc2cc(S(=O)(=O)c3ccccc3)ccc2c1=O [Example 12, 2-((4-methyl-1H-pyrazol-3-yl)methyl)-6-(phenylsulfonyl)phthalazin-1(2H)-one] | 92% | 63.6 nM | 2.7 nM
14 | COc1ccc(S(=O)(=O)c2ccc3c(=O)n(Cc4ccno4)ncc3c2)cc1 [Example 45, 2-(isoxazol-5-ylmethyl)-6-((4-methoxyphenyl)sulfonyl)phthalazin-1(2H)-one] | 83.5% | 435 nM | 26.2 nM
15 | COc1ccc(F)c(Cn2ncc3cc(S(=O)(=O)c4ccccc4)ccc3c2=O)c1 [Example 33, 2-(2-fluoro-5-methoxybenzyl)-6-(phenylsulfonyl)phthalazin-1(2H)-one] | 105% | 63.3 nM | 1.7 nM
16 | COc1ccc(S(=O)(=O)c2ccc3c(=O)n(Cc4cc(F)cnc4O)ncc3c2)cc1 [Example 100, 2-((5-fluoro-2-hydroxypyridin-3-yl)methyl)-6-(4-methoxyphenylsulfonyl)phthalazin-1(2H)-one] | 70.8% | 677 nM | 73.9 nM
17 | COc1ccccc1Cn1ncc2cc(S(=O)(=O)c3ccccc3)ccc2c1=O [Example 79, 2-(2-methoxybenzyl)-6-(phenylsulfonyl)phthalazin-1(2H)-one] | 90.2% | 203 nM | 19.4 nM
18 | NC(=O)c1sccc1Cn1ncc2cc(S(=O)(=O)c3ccccc3)ccc2c1=O [Example 13, 3-((1-oxo-6-(phenylsulfonyl)phthalazin-2(1H)-yl)methyl)thiophene-2-carboxamide] | 113% | 117 nM | 3.1 nM
19 | O=c1c2ccc(S(=O)(=O)c3ccccc3)cc2cnn1Cc1ccc2c(c1)OCCO2 [Example 29, 2-((2,3-dihydrobenzo[b][1,4]dioxin-6-yl)methyl)-6-(phenylsulfonyl)phthalazin-1(2H)-one] | 85% | 33.7 nM | 0.8 nM
20 | COc1ccc(C(C)n2ncc3cc(S(=O)(=O)c4ccccc4)ccc3c2=O)cn1 (stereo not drawn) [Example 74, 2-(1-(6-methoxypyridin-3-yl)ethyl)-6-(phenylsulfonyl)phthalazin-1(2H)-one] | 91.2% | 218 nM | 38.7 nM
21 | COCC(c1ccccc1)n1ncc2cc(S(=O)(=O)c3ccccc3)ccc2c1=O (stereo not drawn) [Example 67, 2-(2-methoxy-1-phenylethyl)-6-(phenylsulfonyl)phthalazin-1(2H)-one] | 91.4% | 185 nM | 3.3 nM
22 | COc1ccc(S(=O)(=O)c2ccc3c(=O)n(Cc4ccccc4)ncc3c2)cc1 [Example 50, 2-benzyl-6-((4-methoxyphenyl)sulfonyl)phthalazin-1(2H)-one] | 97.5% | 70.6 nM | 3.1 nM
23 | COc1ccc(S(=O)(=O)c2ccc3c(=O)n(Cc4c(F)ccnc4O)ncc3c2)cc1 [Example 103, 2-((4-fluoro-2-hydroxypyridin-3-yl)methyl)-6-(4-methoxyphenylsulfonyl) phthalazin-1(2H)-one] | 98.8% | 41.3 nM | 0.7 nM
24 | O=c1c2ccc(S(=O)(=O)c3ccccc3)cc2cnn1Cc1ccc2c(c1)OCO2 [Example 57, 2-(benzo[d][1,3]dioxol-5-ylmethyl)-6-(phenylsulfonyl)phthalazin-1(2H)-one] | 109% | 55 nM | 2.3 nM
25 | O=c1c2ccc(S(=O)(=O)c3ccccc3)cc2cnn1Cc1ccccc1CCO [Example 63, 2-(2-(2-hydroxyethyl)benzyl)-6-(phenylsulfonyl)phthalazin-1(2H)-one] | 101% | 167 nM | 4.3 nM
26 | O=c1c2ccc(S(=O)(=O)c3ccccc3)cc2cnn1Cc1ccc(OC(F)F)nc1 [Example 62, 2-((6-(difluoromethoxy)pyridin-3-yl)methyl)-6-(phenylsulfonyl)phthalazin-1(2H)-one] | 89.5% | 38.7 nM | 2.5 nM
27 | COc1ccc(S(=O)(=O)c2ccc3c(=O)n(Cc4cc(C(C)C)cnc4O)ncc3c2)cc1 [Example 101, 2-((2-hydroxy-5-isopropylpyridin-3-yl)methyl)-6-(4-methoxyphenylsulfonyl)phthalazin-1(2H)-one] | 74.5% | 240 nM | 354 nM
28 | COc1cccc(Cn2ncc3cc(S(=O)(=O)c4ccccc4)ccc3c2=O)n1 [Example 37, 2-((6-methoxypyridin-2-yl)methyl)-6-(phenylsulfonyl)phthalazin-1(2H)-one] | 118% | 133 nM | 3.6 nM
